From patent US8067445B2, “N,N-disubstituted aminoalkylbiphenyl antagonists of prostaglandin D2 receptors” (Panmira Pharmaceuticals, LLC, priority 2008, dated 2011) come the findings set out here.

The target in experiment [1] is T1, recombinant human CRTH2 receptor (Homo sapiens, UniProt Q9Y5Y4).
T1 construct: expressed in transfected cells
T1 sequence (Q9Y5Y4 1-395): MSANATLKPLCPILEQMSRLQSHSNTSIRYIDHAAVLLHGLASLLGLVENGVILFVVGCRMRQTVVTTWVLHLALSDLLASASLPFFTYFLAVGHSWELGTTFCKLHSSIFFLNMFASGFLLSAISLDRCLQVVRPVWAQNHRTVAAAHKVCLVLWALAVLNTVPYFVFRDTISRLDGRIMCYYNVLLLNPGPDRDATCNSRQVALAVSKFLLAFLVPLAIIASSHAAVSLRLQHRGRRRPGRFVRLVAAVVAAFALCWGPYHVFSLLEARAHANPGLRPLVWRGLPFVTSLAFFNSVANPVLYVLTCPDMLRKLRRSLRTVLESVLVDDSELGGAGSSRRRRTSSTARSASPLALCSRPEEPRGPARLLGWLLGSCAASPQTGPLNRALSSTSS
Kind of experiment: GTPγS binding assay. The experiment is classed as biochemical. As to conditions: +HSA (0.2% human serum albumin), 80 nM PGD2, CHO cell membranes; read-out: hDP2 GTPγS μM (+HSA). As to the method:
The ability of a compound to inhibit binding of GTP to DP2 is assessed via a membrane GTPγS assay. CHO cells stably expressing the recombinant human CRTH2 receptor are resuspended in 10 mM Hepes, 7.4 containing 1 mM DTT, lysed and centrifuged at 75,000×g to pellet the membranes. The membranes are resuspended in 10 mM Hepes, 7.4 containing 1 mM DTT and 10% glycerol. […] The reactions are terminated by rapid filtration through Whatman GF/B glass fibre filter plates. The filter plates are washed 3 times with 1 ml cold Assay Buffer and dried. Scintillant is then added to the plates and the radioactivity retained on the filters is determined on a Packard TopCount (Perkin Elmer). Specific binding is determined as total radioactive binding minus non-specific binding in the absence of the ligand (80 nM PGD2). IC50s were determined using Graphpad prism analysis of drug titration curves.
A general note: Binding of GTPγS marks nucleotide exchange on a G protein.

Experiment [2] addresses T2, human DP2 receptor (Homo sapiens, UniProt Q9Y5Y4).
T2 construct: expressed in transfected cells
T2 sequence (Q9Y5Y4 1-395): T1 sequence (Q9Y5Y4 1-395)
Description: DP2/CRTH2 radioligand binding assay ([3H]PGD2). Conditions: [3H]PGD2 binding, membranes of HEK293 cells expressing human DP2; read-out: hDP2. Summed up:
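Membranes from HEK293 cells stably expressing recombinant human DP2 incubated 60 min at room temperature with 1 nM [3H]PGD2 and compound in pH 7.4 Hepes/MnCl2/EDTA buffer, ± 0.2% human serum albumin. Bound radioactivity measured after filtration; non-specific binding defined with 10 μM PGD2. IC50 from titration curves.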

For experiment [3], the target named is T3, human DP1 receptor (Homo sapiens, UniProt Q13258).
T3 construct: tissue Biological Specialty Corporation; host or cells: human platelet membranes
T3 sequence (Q13258 1-359): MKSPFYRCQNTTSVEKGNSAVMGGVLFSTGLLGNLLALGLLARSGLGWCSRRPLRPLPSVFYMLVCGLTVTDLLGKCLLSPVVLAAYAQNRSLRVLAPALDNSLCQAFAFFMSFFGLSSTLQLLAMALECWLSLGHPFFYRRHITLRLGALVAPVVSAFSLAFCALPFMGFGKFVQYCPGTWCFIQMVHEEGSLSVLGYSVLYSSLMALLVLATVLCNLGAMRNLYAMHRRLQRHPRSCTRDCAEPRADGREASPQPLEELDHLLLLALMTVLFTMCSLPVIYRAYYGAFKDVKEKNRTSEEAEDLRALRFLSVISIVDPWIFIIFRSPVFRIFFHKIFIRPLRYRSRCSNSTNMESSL
Kind of experiment: DP1 radioligand binding assay ([3H]BWA868C, platelet membranes). Conditions: [3H]BWA868C binding, human platelet membranes; read-out: hDP1. Summed up:
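Human platelet membranes (20 μg protein/well) incubated 60 min at room temperature with 2 nM [3H]BWA868C and compound in 50 mM Hepes, 10 mM MnCl2, 1 mM EDTA, pH 7.4, ± 0.2% human serum albumin. Bound radioactivity measured after filtration; nonspecific binding defined with 10 μM BWA868C; IC50 from titration curves.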

Some results are limits rather than exact numbers.

Consider `COc1ccc(CC(=O)O)cc1-c1ccc(C(F)(F)F)cc1CN(C(C)=O)C1Cc2ccccc2C1` [Compound 1-17, {2′-[(Acetyl-indan-2-yl-amino)-methyl]-6-methoxy-4′-trifluoromethyl-biphenyl-3-yl}-acetic acid], for which the IC50 was less than 0.3 µM in experiment [1], less than 300 nM in experiment [2] and 1000 to 30000 nM in experiment [3].
The corresponding values for `COc1ccc(CC(=O)O)cc1-c1ccc(C(F)(F)F)cc1CN(CCN(C)C)C(C)=O` [Compound 1-7, (2′-{[Acetyl-(2-dimethylamino-ethyl)-amino]-methyl}-6-methoxy-4′-trifluoromethyl-biphenyl-3-yl)-acetic acid] are 0.3 to 1 µM, 300 to 1000 nM and 1000 to 30000 nM.
As for `CCN(Cc1cc(C(F)(F)F)ccc1-c1cc(CC(=O)O)ccc1OC)C(=O)CS(=O)(=O)c1ccccc1` [Compound 1-120, (2′-{[(2-Benzenesulfonyl-acetyl)-ethyl-amino]-methyl}-6-methoxy-4′-trifluoromethyl-biphenyl-3-yl)-acetic acid], the IC50 in experiment [1] was less than 0.3 µM; in experiment [2], less than 300 nM; in experiment [3] it was 1000 to 30000 nM.
The corresponding values for `COc1ccc(CC(=O)O)cc1-c1ccc(C(F)(F)F)cc1CN(CC(N)=O)C(C)=O` [Compound 1-9, {2′-[(Acetyl-carbamoylmethyl-amino)-methyl]-6-methoxy-4′-trifluoromethyl-biphenyl-3-yl}-acetic acid] are 0.3 to 1 µM, 300 to 1000 nM and 1000 to 30000 nM.
With `CCN(Cc1cc(C(F)(F)F)ccc1-c1cc(CC(=O)O)ccc1OC)C(=O)Nc1ccccc1Br` [Compound 1-47, {2′-[3-(2-Bromo-phenyl)-1-ethyl-ureidomethyl]-6-methoxy-4′-trifluoromethyl-biphenyl-3-yl}-acetic acid], the IC50 was less than 0.3 µM in experiment [1], less than 300 nM in experiment [2] and 1000 to 30000 nM in experiment [3].
The corresponding values for `COc1ccc(CC(=O)O)cc1-c1ccc(C(F)(F)F)cc1CN(C(C)=O)c1ccccc1` [Compound 1-18, {2′-[(Acetyl-phenyl-amino)-methyl]-6-methoxy-4′-trifluoromethyl-biphenyl-3-yl}-acetic acid] are 0.3 to 1 µM, 300 to 1000 nM and 1000 to 30000 nM.
The corresponding values for `CCN(Cc1cc(C(F)(F)F)ccc1-c1ccc(Cl)c(CC(=O)O)c1)C(=O)OCc1ccccc1` [Compound 1-125, {2′-[(Benzyloxycarbonyl-ethyl-amino)-methyl]-4-chloro-4′-trifluoromethyl-biphenyl-3-yl}-acetic acid] are 0.3 to 1 µM, less than 300 nM and 300 to 1000 nM.
Taken in the same sequence, the figures for `COc1ccc(CC(=O)O)cc1-c1ccc(C(F)(F)F)cc1CN(CCc1ccccc1)C(C)=O` [Compound 1-20, {2′-[(Acetyl-phenethyl-amino)-methyl]-6-methoxy-4′-trifluoromethyl-biphenyl-3-yl}-acetic acid] were less than 0.3 µM, less than 300 nM and 1000 to 30000 nM.
As for `CCN(Cc1cc(C(F)(F)F)ccc1-c1cc(CC(=O)O)ccc1OC)/C(=N/C#N)NCC1CCCCC1` [Compound 1-112, [2′-(N′-Cyano-N″-cyclohexylmethyl-N-ethyl-guanidinomethyl)-6-methoxy-4′-trifluoromethyl-biphenyl-3-yl]-acetic acid], the IC50 in experiment [1] is less than 0.3 µM; in experiment [2], less than 300 nM; in experiment [3] it was 1000 to 30000 nM.
`COC(=O)N(Cc1cc(C(F)(F)F)ccc1-c1cc(CC(=O)O)ccc1OC)C1Cc2ccccc2C1` [Compound 1-26, {2′-[(Indan-2-yl-methoxycarbonyl-amino)-methyl]-6-methoxy-4′-trifluoromethyl-biphenyl-3-yl}-acetic acid]: the IC50 is less than 0.3 µM in experiment [1], less than 300 nM in experiment [2] and 1000 to 30000 nM in experiment [3].
As to `COc1ccc(CC(=O)O)cc1-c1ccc(C(F)(F)F)cc1CN(C(C)=O)[C@H]1CCc2ccccc21` [Compound 1-14, {2′-[((S)-Acetyl-indan-1-yl-amino)-methyl]-6-methoxy-4′-trifluoromethyl-biphenyl-3-yl}-acetic acid], the IC50 in experiment [1] was less than 0.3 µM; in experiment [2], less than 300 nM; in experiment [3] it was 1000 to 30000 nM.
As for `CCN(Cc1cc(C(F)(F)F)ccc1-c1cc(CC(=O)O)ccc1OC)/C(=N/C#N)NCC(C)(C)C` [Compound 1-113, {2′-[N′-Cyano-N″-(2,2-dimethyl-propyl)-N-ethyl-guanidinomethyl]-6-methoxy-4′-trifluoromethyl-biphenyl-3-yl}-acetic acid], the IC50 is less than 0.3 µM in experiment [1], less than 300 nM in experiment [2] and 1000 to 30000 nM in experiment [3].
Taken in the same sequence, the figures for `CCN(Cc1cc(C(F)(F)F)ccc1-c1ccc(OC)c(CC(=O)O)c1)C(=O)OCc1ccccc1` [Compound 1-107, {2′-[(Benzyloxycarbonyl-ethyl-amino)-methyl]-4-methoxy-4′-trifluoromethyl-biphenyl-3-yl}-acetic acid] were less than 0.3 µM, less than 300 nM and 1000 to 30000 nM.
Turning to `COc1ccc(CC(=O)O)cc1-c1ccc(C(F)(F)F)cc1CN(CC(C)(C)C)C(C)=O` [Compound 1-3, (2′-{[Acetyl-(2,2-dimethyl-propyl)-amino]-methyl}-6-methoxy-4′-trifluoromethyl-biphenyl-3-yl)-acetic acid], the results for the IC50 in experiment [1], in experiment [2] and in experiment [3] were less than 0.3 µM, less than 300 nM and 1000 to 30000 nM, respectively.
For `COc1ccc(CC(=O)O)cc1-c1ccc(C(F)(F)F)cc1CN(CCO)C(C)=O` [Compound 1-5, (2′-{[Acetyl-(2-hydroxy-ethyl)-amino]-methyl}-6-methoxy-4′-trifluoromethyl-biphenyl-3-yl)-acetic acid], the values for the IC50 in experiment [1], in experiment [2] and in experiment [3] were 0.3 to 1 µM, less than 300 nM and 1000 to 30000 nM, respectively.
Take `CCN(Cc1cc(C(F)(F)F)ccc1-c1cc(CC(=O)O)ccc1OC)S(=O)(=O)c1ccc(Cl)cc1` [Compound 1-100, (2′-{[(4-Chloro-benzenesulfonyl)-ethyl-amino]-methyl}-6-methoxy-4′-trifluoromethyl-biphenyl-3-yl)-acetic acid]: the IC50 in experiment [1] was 1 to 30 µM; in experiment [2], less than 300 nM; in experiment [3], 1000 to 30000 nM.
Take `CCN(Cc1cc(C(F)(F)F)ccc1-c1cc(CC(=O)O)ccc1OC)C(=O)C[S+]([O-])c1ccccc1` (stereo not drawn) [Compound 1-119, (2′-{[(2-Benzenesulfinyl-acetyl)-ethyl-amino]-methyl}-6-methoxy-4′-trifluoromethyl-biphenyl-3-yl)-acetic acid]: the IC50 was less than 0.3 µM in experiment [1], less than 300 nM in experiment [2] and 1000 to 30000 nM in experiment [3].
Take `COCCN(Cc1cc(C(F)(F)F)ccc1-c1cc(CC(=O)O)ccc1OC)C(C)=O` [Compound 1-6, (2′-{[Acetyl-(2-methoxy-ethyl)-amino]-methyl}-6-methoxy-4′-trifluoromethyl-biphenyl-3-yl)-acetic acid]: the results for the IC50 in experiment [1], in experiment [2] and in experiment [3] were less than 0.3 µM, less than 300 nM and 1000 to 30000 nM, respectively.
As to `CCN(Cc1cc(C(F)(F)F)ccc1-c1cc(CC(=O)O)ccc1OCC1CC1)C(=O)OCc1ccccc1` [Compound 1-130], the IC50 was less than 0.3 µM in experiment [1], less than 300 nM in experiment [2] and 1000 to 30000 nM in experiment [3].
